Assay results: patent US11053204B2, “Pyrimidinyloxy benzene derivatives as herbicides” (FMC Corporation, priority 2015, dated 2021)

Columns and labels:
Type in all cases: in vivo
kochia (Kochia scoparia) = assay: Test C preemergence, plant response rating
[1] = system: windgrass (Apera spica-venti); assay: Test C preemergence, plant response rating
[2] = system: pigweed, palmer (palmer pigweed, Amaranthus palmeri); assay: Test C preemergence, plant response rating
[3] = system: galium (catchweed bedstraw, Galium aparine); assay: Test C preemergence, plant response rating
[4] = system: wild poinsettia (Euphorbia heterophylla); assay: Test C preemergence, plant response rating
[5] = system: morningglory (Ipomoea coccinea); assay: Test C postemergence, plant response rating; settings: for Morningglory plant response rating: scale 0 to 100 (0 no effect, 100 complete control)
In short: (§1)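 Pre-emergence: seeds sown in loam soil–sand blend or silt loam and sprayed with test chemicals in a non-phytotoxic solvent mixture with surfactant. Post-emergence: plants 2 to 18 cm (1- to 4-leaf stage) in peat-based potting medium, same formulation. Greenhouse 13 to 15 d; visual rating 0 (no effect) to 100 (complete control) versus controls.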

[6] = system: velvetleaf (Abutilon theophrasti); assay: Test C postemergence, plant response rating
In short: as §1

[7] = system: nutsedge, yellow (yellow nutsedge, Cyperus esculentus); assay: Test C postemergence, plant response rating; settings: for Nutsedge, Yellow plant response rating: scale 0 to 100 (0 no effect, 100 complete control)
In short: as §1

[8] = system: lambsquarters (Chenopodium album); assay: Test C postemergence, plant response rating; settings: for Lambsquarters plant response rating: scale 0 to 100 (0 no effect, 100 complete control)
In short: as §1

[9] = system: ragweed (common ragweed, Ambrosia elatior); assay: Test C postemergence, plant response rating; settings: for Ragweed plant response rating: scale 0 to 100 (0 no effect, 100 complete control)
In short: as §1

[10] = system: barnyardgrass (Echinochloa crus-galli); assay: Test C postemergence, plant response rating; settings: for Plant response rating, Barnyardgrass: scale 0 to 100; for Barnyardgrass plant response rating: scale 0 to 100 (0 no effect, 100 complete control)
In short: as §1

[11] = system: blackgrass (Alopecurus myosuroides); assay: Test C postemergence, plant response rating; settings: for Plant response rating, Blackgrass: scale 0 to 100; for Blackgrass plant response rating: scale 0 to 100 (0 no effect, 100 complete control)
In short: as §1

[12] = system: chickweed (common chickweed, Stellaria media); assay: Test C postemergence, plant response rating; settings: for Chickweed plant response rating: scale 0 to 100 (0 no effect, 100 complete control)
In short: as §1

[13] = system: oat, wild (wild oat Avena fatua); assay: Test C postemergence, plant response rating; settings: for Oat, Wild plant response rating: scale 0 to 100 (0 no effect, 100 complete control)
In short: as §1

[14] = system: ryegrass, Italian (Italian ryegrass, Lolium multiflorum); assay: Test C postemergence, plant response rating; settings: for Ryegrass, Italian plant response rating: scale 0 to 100 (0 no effect, 100 complete control)
In short: as §1

[15] = system: wheat (winter wheat, Triticum aestivum); assay: Test C postemergence, plant response rating
In short: as §1

[16] = system: surinam grass (Brachiaria decumbens); assay: Test C preemergence, plant response rating
[17] = system: oat, wild (wild oat Avena fatua); assay: Test C preemergence, plant response rating
[18] = system: johnsongrass (Sorghum halepense); assay: Test C preemergence, plant response rating
[19] = 125 g ai/ha, scale 0 to 100 (0 no effect, 100 complete control)

`CCCC(=O)c1c(Oc2ncc(Cl)cn2)cccc1C(F)(F)F` [Compound 136] was tested, and the “Plant response rating, Kochia” value (kochia (Kochia scoparia); 31 g ai/ha, scale 0 to 100) was 80, the “Plant response rating, Kochia” value (kochia (Kochia scoparia); 62 g ai/ha, scale 0 to 100) was 85 and the “Plant response rating, Kochia” value (kochia (Kochia scoparia); 125 g ai/ha, scale of 0 to 100) was 98. For the same compound, the “Plant response rating, Windgrass” value ([1]; 31 g ai/ha, scale 0 to 100) was 30, the “Plant response rating, Windgrass” value ([1]; 62 g ai/ha, scale 0 to 100) was 85 and the “Plant response rating, Windgrass” value ([1]; 125 g ai/ha, scale of 0 to 100) was 100. The “Plant response rating, Pigweed, Palmer” value ([2]; 31 g ai/ha, scale 0 to 100) was 75, the “Plant response rating, Pigweed, Palmer” value ([2]; 62 g ai/ha, scale 0 to 100) was 100 and the “Plant response rating, Pigweed, Palmer” value ([2]; 125 g ai/ha, scale of 0 to 100) was 100. For the same compound, the “Plant response rating, Galium” value ([3]; 31 g ai/ha, scale 0 to 100) was 0, the “Plant response rating, Galium” value ([3]; 62 g ai/ha, scale 0 to 100) was 50 and the “Plant response rating, Galium” value ([3]; 125 g ai/ha, scale of 0 to 100) was 90. For the same compound, the “Plant response rating, Poinsettia, Wild” value ([4]; 31 g ai/ha, scale 0 to 100) was 5, the “Plant response rating, Poinsettia, Wild” value ([4]; 62 g ai/ha, scale 0 to 100) was 25 and the “Plant response rating, Poinsettia, Wild” value ([4]; 125 g ai/ha, scale of 0 to 100) was 50. The “Plant response rating, Morningglory” value ([5]; 16 g ai/ha, scale of 0 to 100) was 10, the “Plant response rating, Morningglory” value ([5]; 31 g ai/ha, scale 0 to 100) was 15 and the “Morningglory plant response rating” value ([5]; 62 g ai/ha) was 20. The “Morningglory plant response rating” value ([5]; 125 g ai/ha) was 35, the “Plant response rating, Velvetleaf” value ([6]; 16 g ai/ha, scale of 0 to 100) was 20 and the “Plant response rating, Velvetleaf” value ([6]; 31 g ai/ha, scale 0 to 100) was 50. For the same compound, the “Velvetleaf plant response rating” value [6, 19] was 70, the “Plant response rating, Nutsedge, Yellow” value ([7]; 16 g ai/ha, scale of 0 to 100) was 0 and the “Plant response rating, Nutsedge, Yellow” value ([7]; 31 g ai/ha, scale 0 to 100) was 0. The “Nutsedge, Yellow plant response rating” value ([7]; 62 g ai/ha) was 0, the “Nutsedge, Yellow plant response rating” value ([7]; 125 g ai/ha) was 5 and the “Plant response rating, Lambsquarters” value ([8]; 16 g ai/ha, scale of 0 to 100) was 55. The “Plant response rating, Lambsquarters” value ([8]; 31 g ai/ha, scale 0 to 100) was 75, the “Lambsquarters plant response rating” value ([8]; 62 g ai/ha) was 80 and the “Lambsquarters plant response rating” value ([8]; 125 g ai/ha) was 80. The “Plant response rating, Ragweed” value ([9]; 16 g ai/ha, scale of 0 to 100) was 20, the “Plant response rating, Ragweed” value ([9]; 31 g ai/ha, scale 0 to 100) was 20 and the “Ragweed plant response rating” value ([9]; 62 g ai/ha) was 30. The “Ragweed plant response rating” value ([9]; 125 g ai/ha) was 35, the “Plant response rating, Barnyardgrass” value ([10]; 16 g ai/ha) was 5 and the “Plant response rating, Barnyardgrass” value ([10]; 31 g ai/ha) was 5. The “Barnyardgrass plant response rating” value ([10]; 62 g ai/ha) was 10, the “Barnyardgrass plant response rating” value ([10]; 125 g ai/ha) was 10 and the “Plant response rating, Blackgrass” value ([11]; 16 g ai/ha) was 5. For the same compound, the “Plant response rating, Blackgrass” value ([11]; 31 g ai/ha) was 10, the “Blackgrass plant response rating” value ([11]; 62 g ai/ha) was 10 and the “Blackgrass plant response rating” value ([11]; 125 g ai/ha) was 15. The “Plant response rating, Chickweed” value ([12]; 16 g ai/ha, scale of 0 to 100) was 55, the “Plant response rating, Chickweed” value ([12]; 31 g ai/ha, scale 0 to 100) was 65 and the “Chickweed plant response rating” value ([12]; 62 g ai/ha) was 75. For the same compound, the “Chickweed plant response rating” value ([12]; 125 g ai/ha) was 80, the “Plant response rating, Oat, Wild” value ([13]; 16 g ai/ha, scale of 0 to 100) was 5 and the “Plant response rating, Oat, Wild” value ([13]; 31 g ai/ha, scale 0 to 100) was 5. The “Oat, Wild plant response rating” value ([13]; 62 g ai/ha) was 10, the “Oat, Wild plant response rating” value ([13]; 125 g ai/ha) was 10 and the “Plant response rating, Ryegrass, Italian” value ([14]; 16 g ai/ha, scale of 0 to 100) was 0. For the same compound, the “Plant response rating, Ryegrass, Italian” value ([14]; 31 g ai/ha, scale 0 to 100) was 5, the “Ryegrass, Italian plant response rating” value ([14]; 62 g ai/ha) was 5 and the “Ryegrass, Italian plant response rating” value ([14]; 125 g ai/ha) was 10. The “Plant response rating, Wheat” value ([15]; 16 g ai/ha, scale of 0 to 100) was 0, the “Plant response rating, Wheat” value ([15]; 31 g ai/ha, scale 0 to 100) was 5 and the “Wheat plant response rating” value [15, 19] was 5. The “Plant response rating, Surinam Grass” value ([16]; 31 g ai/ha, scale 0 to 100) was 25, the “Plant response rating, Surinam Grass” value ([16]; 62 g ai/ha, scale 0 to 100) was 10 and the “Plant response rating, Surinam Grass” value ([16]; 125 g ai/ha, scale of 0 to 100) was 100. The “Plant response rating, Oat, Wild” value ([17]; 31 g ai/ha, scale 0 to 100) was 0, the “Plant response rating, Oat, Wild” value ([17]; 62 g ai/ha, scale 0 to 100) was 5 and the “Plant response rating, Oat, Wild” value ([17]; 125 g ai/ha, scale of 0 to 100) was 45. For the same compound, the “Plant response rating, Johnsongrass” value ([18]; 31 g ai/ha, scale 0 to 100) was 25, the “Plant response rating, Johnsongrass” value ([18]; 62 g ai/ha, scale 0 to 100) was 35 and the “Plant response rating, Johnsongrass” value ([18]; 125 g ai/ha, scale of 0 to 100) was 70.
